The values below come from the supplement of paper PMC6045584.

Holding throughout (assay): area under dose-response curve of surviving fraction (unscaled, Aref=0) (surviving fraction x log10(nM)); higher = more resistant
Common to all, as to conditions: exposure time: 5 days; dose range 0.5-1000 nM

Compound in test [1]: CC(=O)NCC(=O)N1[C@@H]2CC[C@H]1c1ccc(Nc3ncc(C(F)(F)F)c(NC4CCC4)n3)cc12
Summed up:
(§1)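 Three screens per tumour cell line were run in 384-well plates at eight inhibitor concentrations from 0.5 to 1000 nM over five days. Surviving fractions, from CellTiter-Glo luminescence normalised to DMSO-only wells, were fitted with 3-parameter logistic curves in the drc R package. The reported area under the curve is the unscaled activity area. It spans log10 dose, and Aref is 0.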

Compound in test [2]: CC(=O)O[C@H]1C(=O)[C@@]2(C)[C@H]([C@H](OC(=O)c3ccccc3)[C@]3(O)C[C@H](OC(=O)[C@H](O)[C@@H](NC(=O)c4ccccc4)c4ccccc4)C(C)=C1C3(C)C)[C@]1(OC(C)=O)CO[C@@H]1C[C@@H]2O [PACLITAXEL]
The gist of the method: as §1

Compound in test [3]: CC(=O)c1c(C)c2cnc(Nc3ccc(N4CCNCC4)cn3)nc2n(C2CCCC2)c1=O
Summed up: as §1

Compound in test [4]: CC[C@@]1(O)C(=O)OCc2c1cc1n(c2=O)Cc2cc3ccccc3nc2-1 [CAMPTOTHECIN]
The gist of the method:
as §1

Compound in test [5]: COCC[n+]1c2c(n(Cc3cnccn3)c1C)C(=O)c1ccccc1C2=O [YM155]
The gist of the method: as §1

Compound in test [6]: COc1cc2ncnc(Nc3ccc(F)c(Cl)c3)c2cc1OCCCN1CCOCC1 [GEFITINIB]
Summed up:
as §1

Compound in test [7]: C[C@]1(O)C[C@@H](c2nc(-c3ccc4ccc(-c5ccccc5)nc4c3)c3c(N)nccn32)C1 [OSI-906]
The gist of the method: as §1

Compound in test [8]: Cc1ccc(-c2cc(C(F)(F)F)nn2-c2ccc(S(N)(=O)=O)cc2)cc1 [CELECOXIB]
The gist of the method: as §1

Compound in test [9]: O=C(O)C1(C(=O)O)CCC1.[NH2-].[NH2-].[Pt+2] [CARBOPLATIN]
The gist of the method: as §1

HS57T LUNG: the “area under dose-response curve” value turned out to be 2.46 in [1]; 0.449 in test [2]; 3.56 in test [3]; 1.43 in [4]; 1.67 in [5]; 3.31 in [6]. The “area under dose-response curve” value in [7] turned out to be 2.92; in [8], 3.47; in [9] it was 3.58.
